Source: PubChem BioAssay AID977614 (Broad Institute, 2014)
Active and inactive are the calls of the source.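 Rule for the calls: active = parasite count per well reduced by over 3 SD from the mean, with host cell number above 80% of untreated; inactive = the rest.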

Test system: L. donovani amastigotes in THP-1 macrophages, DAPI imaging, 72 h
Test: L. donovani intracellular amastigote growth inhibitors, imaging, THP-1 host macrophages, single concentration (AID 977614);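 note: signal is the parasite per host cell ratio from DAPI stained kinetoplasts and nuclei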

**Q.** Which AC50 does the source give for C[C@H]1CN([C@@H](C)CO)C(=O)CCCn2cc(nn2)CO[C@H]1CN(C)Cc1ccccc1 here?
**A.** > 10 µM (inactive)

**Q.** For COCC(=O)NC[C@@H]1[C@H](c2ccccc2)[C@H](CO)N1C(=O)c1ccccc1, which AC50 is on record?
**A.** > 10 µM (inactive)

**Q.** How did the AC50 turn out when COc1cccc(NC(=O)N2[C@H](CO)[C@H](c3ccccc3)[C@H]2CNCC(C)C)c1 was run?
**A.** > 10 µM (inactive)

**Q.** O=C(Nc1ccccc1F)N1C[C@@H]2[C@H](c3ccccc31)[C@H](CO)N2C(=O)Cc1cccnc1 was tested. Which AC50 did it give?
**A.** > 10 µM (inactive)

**Q.** COc1ccccc1CN1[C@H](CO)[C@@H]2c3ccccc3N(C(=O)c3cccnc3)C[C@@H]21 was tested. Which AC50 did it give?
**A.** > 10 µM (inactive)

**Q.** How did the AC50 turn out when CC(=O)N1[C@H](CO)[C@@H](c2ccccc2)[C@H]1CN(C)S(=O)(=O)c1ccccc1 was run?
**A.** > 10 µM (inactive)

**Q.** For C[C@H]1CN([C@@H](C)CO)C(=O)CCCn2cc(nn2)CO[C@@H]1CN(C)C(=O)NC1CCCCC1, which AC50 is on record?
**A.** > 10 µM (inactive)

**Q.** For C/C=C/c1ccc([C@@H]2[C@H](CO)N(C(C)=O)[C@H]2CN(CC)C(=O)CN(C)C)cc1, which AC50 is on record?
**A.** > 10 µM (inactive)

**Q.** Which AC50 does the source give for C[C@@H]1CN([C@@H](C)CO)C(=O)CCCn2cc(nn2)CO[C@@H]1CN(C)C(=O)c1ccc(N2CCN(C)CC2)cc1 here?
**A.** > 10 µM (inactive)

**Q.** With CCC(=O)N1[C@@H]2CN(S(=O)(=O)c3ccc(F)cc3)c3ccccc3[C@@H]2[C@@H]1CO as the molecule, how does the AC50 read?
**A.** > 10 µM (inactive)

**Q.** How did the AC50 turn out when Cc1noc(C)c1S(=O)(=O)N(C)C[C@@H]1OCc2cn(nn2)CCCC(=O)N([C@H](C)CO)C[C@@H]1C was run?
**A.** > 10 µM (inactive)

**Q.** For CCC(=O)N1C[C@@H]2[C@H](c3ccccc31)[C@H](CO)N2Cc1ccc(F)cc1, which AC50 is on record?
**A.** > 10 µM (inactive)

**Q.** C[C@@H]1CN([C@@H](C)CO)C(=O)CCCn2nncc2CO[C@@H]1CN(C)C(=O)Nc1ccnc(N2CCOCC2)c1 was tested. Which AC50 did it give?
**A.** > 10 µM (inactive)

**Q.** With CCN(C[C@@H]1[C@@H](c2ccccc2)[C@H](CO)N1C(C)=O)C(=O)NC1CCCC1 as the molecule, how does the AC50 read?
**A.** > 10 µM (inactive)

**Q.** How did the AC50 turn out when Cc1noc(C)c1S(=O)(=O)N(C)C[C@@H]1OCc2cnnn2CCCC(=O)N([C@@H](C)CO)C[C@H]1C was run?
**A.** > 10 µM (inactive)

**Q.** Which AC50 does the source give for C/C=C/c1ccc([C@@H]2[C@@H](CN(CC)C(=O)CN(C)C)N(C(C)=O)[C@H]2CO)cc1 here?
**A.** > 10 µM (inactive)

**Q.** With O=C(c1ccncc1)N1C[C@H]2[C@@H](c3ccccc31)[C@@H](CO)N2Cc1ccccc1F as the molecule, how does the AC50 read?
**A.** > 10 µM (inactive)

**Q.** With CC(=O)N1[C@H](CN(C)S(=O)(=O)c2ccccc2)[C@H](c2ccccc2)[C@@H]1CO as the molecule, how does the AC50 read?
**A.** > 10 µM (inactive)

**Q.** For CCCN1[C@H](CO)[C@H](c2ccc(-c3ccccc3F)cc2)[C@@H]1CNC(=O)C1CCC1, which AC50 is on record?
**A.** > 10 µM (inactive)

**Q.** For CN(C[C@@H]1[C@H](c2ccccc2)[C@@H](CO)N1Cc1ccccn1)S(C)(=O)=O, which AC50 is on record?
**A.** > 10 µM (inactive)

**Q.** For O=C(c1ccccn1)N1C[C@H]2[C@@H](c3ccccc31)[C@H](CO)N2C(=O)Nc1ccccc1Cl, which AC50 is on record?
**A.** > 10 µM (inactive)

**Q.** Which AC50 does the source give for O=S(=O)(c1ccccc1)N1C[C@@H]2[C@H](c3ccccc31)[C@H](CO)N2Cc1ccccn1 here?
**A.** > 10 µM (inactive)

**Q.** COc1ccccc1S(=O)(=O)N(C)C[C@H]1OCc2cn(nn2)CCCC(=O)N([C@@H](C)CO)C[C@H]1C was tested. Which AC50 did it give?
**A.** > 10 µM (inactive)

**Q.** How did the AC50 turn out when CCN(C[C@H]1[C@H](c2ccccc2)[C@H](CO)N1C(C)=O)C(=O)NC1CCCC1 was run?
**A.** > 10 µM (inactive)

**Q.** With C[C@@H]1CN([C@@H](C)CO)C(=O)CCCn2nncc2CO[C@@H]1CN(C)C(=O)Nc1ccccc1C(F)(F)F as the molecule, how does the AC50 read?
**A.** > 10 µM (inactive)
